Target: T1, prolyl endopeptidase (PEP), rat brain extract (Rattus norvegicus, UniProt O70196)
T1 construct: the supernatant, containing the enzyme, was collected; from tissue; host or cells: rat (Sprague-Dawley, male) whole brain without cerebellum, 40000 g supernatant
T1 sequence (O70196 1-710): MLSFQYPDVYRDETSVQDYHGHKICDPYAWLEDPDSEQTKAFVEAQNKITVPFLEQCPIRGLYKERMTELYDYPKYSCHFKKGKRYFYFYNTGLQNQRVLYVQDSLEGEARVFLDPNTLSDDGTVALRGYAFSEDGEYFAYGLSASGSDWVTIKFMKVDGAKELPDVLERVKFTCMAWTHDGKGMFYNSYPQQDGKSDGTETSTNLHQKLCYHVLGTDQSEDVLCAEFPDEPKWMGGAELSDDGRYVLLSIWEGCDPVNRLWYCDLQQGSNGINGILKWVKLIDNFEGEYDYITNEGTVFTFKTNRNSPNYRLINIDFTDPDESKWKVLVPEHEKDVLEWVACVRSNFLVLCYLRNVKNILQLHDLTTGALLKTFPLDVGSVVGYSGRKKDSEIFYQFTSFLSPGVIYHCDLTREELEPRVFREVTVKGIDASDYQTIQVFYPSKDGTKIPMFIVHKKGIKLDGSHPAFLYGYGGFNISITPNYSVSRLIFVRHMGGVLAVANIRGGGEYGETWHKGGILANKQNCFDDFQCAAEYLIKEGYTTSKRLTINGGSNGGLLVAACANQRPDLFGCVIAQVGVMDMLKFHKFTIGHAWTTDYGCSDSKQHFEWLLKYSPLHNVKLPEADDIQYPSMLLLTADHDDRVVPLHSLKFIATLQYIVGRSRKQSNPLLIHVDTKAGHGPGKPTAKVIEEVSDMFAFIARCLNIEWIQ
Test: PEP activity measurement on rat brain extract
Format: biochemical, rat (Sprague-Dawley)
Conditions: Z-glycyl-prolyl-7-amino-4-methyl-coumarin 62.5 μM, room temperature, 15 min
Protocol: PEP Activity Measurement on Rat Brain Extract:
After removal of the cerebellum whole brain of male (Sprague-Dawley, 180-200 g) rats was homogenized in a double volume of 0.1 M Tris-HCl, 1 mM EDTA buffer, pH=7.5 (PEP buffer). The homogenate was centrifuged for 30 min. at 4° C. at 40000 g and the supernatant, containing the enzyme, was collected. The pellet was resuspended in the same volume of buffer as in the first case and centrifuged again under the same conditions. The two supernatants were pooled and stored in 1 ml aliquots at -70° C. (for at least 3 months). The supernatant was thawn just before activity measurement and diluted in a 1:15 ratio with PEP buffer. […] The inhibitory effect of compounds was tested under the same conditions in the presence of 100 to 0.001 nM compound.

Compound | IC50
O=C([C@@H]1CSCN1C(=O)CCN1C(=O)c2cccc3cccc(c23)C1=O)N1CCSC1 [Example 123] | 278 pM
O=C([C@@H]1C[S+]([O-])CN1C(=O)CCCN1C(=O)Nc2ccc([N+](=O)[O-])cc2S1(=O)=O)N1CCCC1 (stereo partly drawn) [Example 171] | 451 pM
Cc1ccc2c(c1)C(=O)N(CCC(=O)N1CSC[C@H]1C(=O)N1CCSC1)C2=O [Example 31] | 360 pM

From patent publication US6191161A, “Prolylendopeptidase inhibitors” (Chinoin Gyogyszer es Vegyeszeti, priority 1995, dated 2001)
